PMC4912077 (PLoS ONE, 2016)

Experiments:
Sprague–Dawley rats [1] = assay: Pre-pulse inhibition (PPI) of acoustic startle in rats; type: in vivo, rat; conditions: higher potency
Method: Male Sprague–Dawley rats from Harlan Industries (Indianapolis, IN, USA; initial weight 250–275 g) were housed in pairs under a 12-h reverse light/dark cycle (lights off at 0700 h). Use of a reversed light/dark cycle allows behavioral testing to be conducted during the awake phase of the light/dark cycle. Food and water were available ad libitum. Animals were acclimatized for approximately 1 wk after arrival prior to behavioral testing and maintained in Association for Assessment and Accreditation of Laboratory Animal Care (AAALAC)-approved facilities that meet all federal and state guidelines. Procedures were approved by the University of California San Diego institutional animal care and use committee. Principles of laboratory animal care were followed.
DPH hydrochloride and 2-MXP hydrochloride were dissolved in water containing 5% Tween-80 and administered subcutaneously, 10-min prior to the start of the startle test session. The injection volume was 1 ml/kg.
Eight startle chambers (SR-LAB system, San Diego Instruments, San Diego, CA, USA) were used to measure startle reactivity in rats. The startle test chambers were sound-attenuated, lighted, and ventilated enclosures containing a clear nonrestrictive cylindrical Plexiglas stabilimeter, 8.2 cm in diameter. A high-frequency loudspeaker mounted 24 cm above the Plexiglas cylinder produced all acoustic stimuli. The peak and average amplitudes of the startle response were detected by a piezoelectric accelerometer. At the onset of the startling stimulus, 100 1-ms readings were recorded, and the average amplitude was used to determine the magnitude of the startle response (measured in arbitrary units).
Acoustic startle test sessions consisted of startle trials (pulse-alone) and prepulse trials (prepulse + pulse). The pulse-alone trial consisted of a 40-ms 120-dB pulse of broadband white noise. Prepulse + pulse trials consisted of a 20-ms acoustic prepulse, an 80-ms delay, and then a 40-ms 120-dB startle pulse (100-ms onset–onset). There was an average of 15 s (range = 6–22 s) between trials. During each inter-trial interval, the movements of the animals were recorded once to measure response when no stimulus was present (data not shown). Each startle session began with a 5 min acclimation period to a 65-dB broadband noise that was present continuously throughout the session. One week after arrival, animals were tested in a brief baseline startle/PPI session to create treatment groups matched for levels of startle and PPI. The startle test session contained 12 pulse-alone trials and 36 prepulse + pulse trials (12 prepulses each of 68-, 71-, and 77-dB [equivalent to 3-, 6-, and 12-dB above background]) presented in a pseudo-randomized order. Six pulse-alone trials were presented at the beginning and the end of the test session but were not used in the calculation of PPI values. Raw data for all PPI experiments are provided as supporting information (S5 File).
The amount of PPI was calculated as a percentage score for each prepulse + pulse trial type: %PPI = 100−{[(startle response for prepulse + pulse trial)/(startle response for pulse-alone trial)] × 100}. Startle magnitude was calculated as the average response to all of the pulse-alone trials. PPI data were analyzed with two-factor analysis of variance (ANOVA) with treatment as the between-subjects factor and trial type (prepulse intensity) as a repeated measure. For experiments in which there was no significant interaction between drug and prepulse intensity, PPI data were collapsed across prepulse intensity and average PPI was used as the main dependent measure. ED50 values were calculated using nonlinear regression. Startle magnitude data were analyzed with one-factor ANOVA. Post-hoc analyses were performed using Tukey’s studentized range method. The alpha level was set at 0.05.

[2] = system: PCP site within the NMDAR channel; conditions: [3H]-(+)-MK-801, rat forebrain, cited from earlier work
Sprague–Dawley rats [3] = conditions: rat; cited from earlier work
[4] = system: PCP site within the NMDAR channel; assay: NMDAR binding, [3H]-MK-801 displacement in rat forebrain homogenate; conditions: lower affinity;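 also: IC50 by nonlinear regression of percent specific binding versus log concentration, Ki from IC50 via Cheng-Prusoff, raw counts in CPM, duplicates repeated at least three times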
Method: The reaction was terminated by vacuum filtration using a 24 well cell harvester (Brandel, Gaithersburg, MD) over presoaked GF/B glass fiber filters (Brandel, Gaithersburg, MD). Filters were washed with room temperature assay buffer (3 x 5 mL). […] IC50 values were determined in Graphpad Prism 5.0 using non-linear regression with log-concentration plotted against percent specific binding. […] Ki values were calculated using the equation of Cheng and Prusoff [24]. […] Protein concentration was determined via the Bradford method using Coomassie protein assay reagent (Sigma, USA) [25] with rat albumin (Sigma, USA) as standard. Experiments were performed in duplicate and repeated a minimum of three times.

SMILES: c1ccc(C2(N3CCCCC3)CCCCC2)cc1 [PCP, Phencyclidine]
- potency to alter PPI relative to DPH (Sprague–Dawley rats [1]): 10 fold
- IC50 [2]: 91 ± 1.3 nM
- Ki ([2]; read-out: Ki ± SEM): 57.9 ± 0.8 nM
- ED50 for disruption of PPI (Sprague–Dawley rats [3]): 3.15 µmol/kg
- [3H]MK-801 displacement affinity relative to DPH [4]: 3 fold
